Assay results as given in US7084145B2, “Triazole compounds useful in therapy” (Pfizer Inc., priority 2002, dated 2006).

Experiments:
[1] = target: T1, human V1A receptor (Homo sapiens, UniProt P37288); assay: V1A filter binding assay ([3H]-AVP binding to CHO-hV1A membranes); conditions: screen 1.0, [3H]-AVP displacement
T1 construct: host or cells: CHO cells (CHO-hV1A), membrane preparation
Experimental: 1.0 V1A Filter Binding Assay
Receptor binding assays were performed on cellular membranes prepared from CHO cells stably expressing the human V1A receptor, (CHO-hV1A). The CHO-hV1A cell line was kindly provided under a licensing agreement by Marc Thibonnier, Dept. of Medicine, Case Western Reserve University School of Medicine, Cleveland, Ohio. CHO-hV1A cells were routinely maintained at 37° C. in humidified atmosphere with 5% CO2 in DMEM/Hams F12 nutrient mix supplemented with 10% fetal bovine serum, 2 mM L-glutamine, 15 mM HEPES and 400 μg/ml G418. For bulk production of cell pellets, adherent CHO-hV1A cells were grown to confluency of 90–100% in 850 cm^2 roller bottles containing a medium of DMEM/Hams F12 Nutrient Mix supplemented with 10% fetal bovine serum, 2 mM L-glutamine and 15 mM HEPES. Confluent CHO-hV1A cells were washed with phosphate-buffered saline (PBS), harvested into ice cold PBS and centrifuged at 1,000 rpm. Cell pellets were stored at −80° C. until use. Cell pellets were thawed on ice and homogenised in membrane preparation buffer consisting of 50 mM Tris-HCl, pH 7.4, 5 mM MgCl2 and supplemented with a protease inhibitor cocktail, (Roche). The cell homogenate was centrifuged at 1000 rpm, 10 min, 4° C. and the supernatant was removed and stored on ice. The remaining pellet was homogenised and centrifuged as before. The supernatants were pooled and centrifuged at 25,000×g for 30 min at 4° C. The pellet was resuspended in freezing buffer consisting of 50 mM Tris-HCl, pH 7.4, 5 mM MgCl2 and 20% glycerol and stored in small aliquots at −80° C. until use. Protein concentration was determined using Bradford reagent and BSA as a standard.
Protein linearity followed by saturation binding studies were performed on each new batch of membrane. Membrane concentration was chosen that gave specific binding on the linear portion of the curve.
Compounds were tested for their effects on [^3H]-AVP binding to CHO-hV1A membranes, (^3H-AVP; specific activity 65.5 Ci/mmol; NEN Life Sciences). Compounds were solubilised in dimethylsulfoxide (DMSO) and diluted to working concentration of 10% DMSO with assay buffer containing 50 mM Tris-HCL pH 7.4, 5 mM MgCl2 and 0.05% BSA. […] The plates were sealed and counted on a TopCount Microplate Scintillation Counter (Packard Instruments). […] The radioligand binding data was analysed using a four parameter logistic equation with the min forced to 0%. […] Specific binding was calculated by subtracting the mean NSB cpm from the mean Total cpm. […] The inhibitory dissociation constant (Ki) was calculated using the Cheng-Prusoff equation: Ki=IC50/(1+[L]/Kd) where [L] is the concentration of ligand present in the well and Kd is the dissociation constant of the radioligand obtained from Scatchard plot analysis.

T1 sequence (P37288 whole entry): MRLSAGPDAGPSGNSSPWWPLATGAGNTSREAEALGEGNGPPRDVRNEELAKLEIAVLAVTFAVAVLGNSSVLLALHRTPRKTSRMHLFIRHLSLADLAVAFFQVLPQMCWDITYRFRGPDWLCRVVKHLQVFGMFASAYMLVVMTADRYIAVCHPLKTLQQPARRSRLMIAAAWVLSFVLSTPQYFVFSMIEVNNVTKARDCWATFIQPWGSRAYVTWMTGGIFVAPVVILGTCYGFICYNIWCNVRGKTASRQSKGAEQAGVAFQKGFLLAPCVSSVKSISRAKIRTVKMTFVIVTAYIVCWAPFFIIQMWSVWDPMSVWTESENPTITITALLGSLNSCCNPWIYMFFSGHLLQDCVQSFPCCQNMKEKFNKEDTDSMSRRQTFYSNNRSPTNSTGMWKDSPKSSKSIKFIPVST

| Ki [1] | melting point | SMILES |
| --- | --- | --- |
| 4.67 nM | – | c1ccc(COCc2nnc(C3CCN(c4ccccn4)CC3)n2Cc2ccccc2)cc1 [Example 17, 4-(4-Benzyl-5-benzyloxymethyl-4H-[1,2,4]triazol-3-yl)-3,4,5,6-tetrahydro-2H-[1,2′]bipyridinyl] |
| – | 191.1 °C | Cc1nnc(C2CCN(c3cnccn3)CC2)n1Cc1ccccc1 [Example 23, 2-[4-(4-Benzyl-5-methyl-4H-[1,2,4]triazol-3-yl)-piperidin-1-yl]-pyrazine] |
| 12.1 nM | – | c1ccc(Cn2c(CN3CCCCC3)nnc2C2CCN(c3ccccn3)CC2)cc1 [Example 24, 4-(4-Benzyl-5-piperidin-1-ylmethyl-4H-[1,2,4]triazol-3-yl)-3,4,5,6-tetrahydro-2H-[1,2′]bipyridinyl] |
| 16.1 nM | – | C[C@@H](c1ccccc1)n1c(CN2CCCCC2)nnc1C1CCN(c2ccccn2)CC1 [Example 25, (S)-4-[4-(1-Phenyl-ethyl)-5-piperidin-1-ylmethyl-4H-[1,2,4]triazol-3-yl]-3,4,5,6-tetrahydro-2H-[1,2′]bipyridinyl] |

| SMILES | Ki [1] | melting point |
| --- | --- | --- |
| COC1CCN(Cc2nnc(C3CCN(c4ccccn4)CC3)n2Cc2ccccc2)CC1 [Example 26, 4-[4-Benzyl-5-(4-methoxy-piperidin-1-ylmethyl)-4H-[1,2,4]triazol-3-yl]-3,4,5,6-tetrahydro-2H-[1,2′]bipyridinyl] | 4.5 nM | – |
